According to ChEMBL document CHEMBL1145233, “Design, synthesis and evaluation of 5-substituted amino-2,4-diamino-8-chloropyrimido-[4,5-b]quinolines as novel antimalarials” (2005):

Assays:
Assay type in all cases: functional
Mus musculus [1] = test: In vivo antimalarial activity of compound against Plasmodium berghei in mice (Mus musculus) expressed as mean survival time at 40 mg/kg
Mus musculus [2] = test: In vivo antimalarial activity of compound against Plasmodium berghei in mice (Mus musculus) expressed as mean survival time at 80 mg/kg
Mus musculus [3] = test: In vivo antimalarial activity of compound against Plasmodium berghei in mice (Mus musculus) expressed as mean survival time at 160 mg/kg
Mus musculus [4] = test: In vivo antimalarial activity of compound against Plasmodium berghei in mice (Mus musculus) expressed as mean survival time at 20 mg/kg

`Nc1nc(N)c2c(Nc3cc(CN4CCCC4)c(O)c(CN4CCCC4)c3)c3ccc(Cl)cc3nc2n1` showed a Survival time (Mus musculus [1]) of over 60 days, a Survival time (Mus musculus [2]) of over 60 days and a Survival time (Mus musculus [3]) of over 60 days. It also gave a Survival time (Mus musculus [4]) of over 60 days.

`CN(COOC(C)(C)C)c1c2ccc(Cl)cc2nc2nc(N)nc(N)c12` gave a Survival time (Mus musculus [1]) of 30 days, a Survival time (Mus musculus [2]) of 20 days and a Survival time (Mus musculus [3]) of 14 days. For the same compound, the Survival time (Mus musculus [4]) was 28 days.

`Nc1nc(N)c2c(Nc3ccc(S(N)(=O)=O)cc3)c3ccc(Cl)cc3nc2n1` showed a Survival time (Mus musculus [1]) of 13 days, a Survival time (Mus musculus [2]) of 15 days and a Survival time (Mus musculus [3]) of 14 days. It also gave a Survival time (Mus musculus [4]) of 12 days.

With `CCN(CC)c1cc(Nc2c3ccc(Cl)cc3nc3nc(N)nc(N)c23)cc(N(CC)CC)c1O` the Survival time (Mus musculus [1]) was over 60 days, the Survival time (Mus musculus [2]) was over 60 days and the Survival time (Mus musculus [3]) was over 60 days. The Survival time (Mus musculus [4]) was over 60 days.

`Nc1nc(N)c2c(N)c3ccc(Cl)cc3nc2n1` gave a Survival time (Mus musculus [1]) of 16 days, a Survival time (Mus musculus [2]) of 18 days and a Survival time (Mus musculus [3]) of 20 days. It also gave a Survival time (Mus musculus [4]) of 15 days.

`CCN(COOC(C)(C)C)c1c2ccc(Cl)cc2nc2nc(N)nc(N)c12` was tested, and the Survival time (Mus musculus [1]) was 12 days, the Survival time (Mus musculus [2]) was 14 days and the Survival time (Mus musculus [3]) was 15 days. For the same compound, the Survival time (Mus musculus [4]) was 13 days.

`Nc1nc(N)c2c(Nc3ccc(S(=O)(=O)Nc4ccccn4)cc3)c3ccc(Cl)cc3nc2n1` showed a Survival time (Mus musculus [1]) of 14 days, a Survival time (Mus musculus [2]) of 15 days and a Survival time (Mus musculus [3]) of 13 days. It also gave a Survival time (Mus musculus [4]) of 11 days.

`Nc1nc(N)c2c(Nc3ccc(O)c(CN4CCCC4)c3)c3ccc(Cl)cc3nc2n1` showed a Survival time (Mus musculus [1]) of 20 days, a Survival time (Mus musculus [2]) of 25 days and a Survival time (Mus musculus [3]) of 26 days. For the same compound, the Survival time (Mus musculus [4]) was 15 days.

Work on `COc1ncnc(NS(=O)(=O)c2ccc(Nc3c4ccc(Cl)cc4nc4nc(N)nc(N)c34)cc2)c1OC` yielded a Survival time (Mus musculus [1]) of over 60 days, a Survival time (Mus musculus [2]) of over 60 days and a Survival time (Mus musculus [3]) of over 60 days. For the same compound, the Survival time (Mus musculus [4]) was over 60 days.

`CCN(CC)c1cc(Nc2c3ccc(Cl)cc3nc3nc(N)nc(N)c23)ccc1O` was tested, and the Survival time (Mus musculus [1]) was 13 days, the Survival time (Mus musculus [2]) was 15 days and the Survival time (Mus musculus [3]) was 14 days. For the same compound, the Survival time (Mus musculus [4]) was 12 days.

`CCN(CC)CCCC(C)Nc1ccnc2cc(Cl)ccc12` (stereo unspecified) [CHLOROQUINE] gave a Survival time (Mus musculus [4]) of 15 days.
